In patent US4036834A, “Derivatives of 7-(α-hydroxy-substituted pyridyl carboxamido-α p h Δ^3 -cephem-4-carboxylic acid” (Yamanouchi Pharmaceutical Co., Ltd., priority 1974, dated 1977):
Values after ≈ are worked out from the molar mass of the structure shown. Where two headings read alike, the source gives them in different places.

Experiments:
[1] = system: Shigella sonnei II 37148; assay: MIC against Shigella sonnei II 37148; format: cell-based; conditions: II37148
Source text: (§1) Now, for illustrating the excellent pharmacological effects of the compounds of this invention, the values of MIC (γ/ml) of the compounds against various bacteria are shown in the following table, the compounds of this invention are shown by example numbers.

[2] = system: salmonella typhi H901W; assay: microbe, parasite or virus in culture; format: cell-based; conditions: Salmonella enterica
[3] = system: pseudomonas aeruginosa ATCC 8689; assay: MIC against pseudomonas aeruginosa ATCC 8689; format: cell-based; conditions: ATCC8689
Source text: as §1
4: pseudomonas aeruginosa ATCC 8689

[4] = system: Klebsiella pneumoniae ATCC 10031; assay: MIC against Klebsiella pneumoniae ATCC 10031; format: cell-based; conditions: ATCC10031
Source text: as §1
8: Klebsiella pneumoniae ATCC 10031

[5] = system: staphylococcus aureus 209P; assay: MIC against staphylococcus aureus 209P; format: cell-based
Source text: as §1
16: staphylococcus aureus 209P

[6] = system: salmonella enteritidis; assay: MIC against salmonella enteritidis; format: cell-based; conditions: Salmonella enterica
Source text: as §1
10: salmonella enteritidis

[7] = system: Shigella flexnori 2a 1675; assay: MIC against Shigella flexnori 2a 1675; format: cell-based; conditions: 2A1675
Source text: as §1

[8] = system: Bacillus subtilis ATCC 6633; assay: MIC against Bacillus subtilis ATCC 6633; format: cell-based; conditions: ATCC6633
Source text: as §1
14: Bacillus subtilis ATCC 6633

[9] = system: bacillus megatherium 10778; assay: MIC against bacillus megatherium 10778; format: cell-based
Source text: as §1

[10] = system: micrococcus flavus ATCC 10240; assay: MIC against micrococcus flavus ATCC 10240; format: cell-based; conditions: ATCC10240
Source text: as §1

[11] = system: proteus vulgaris OX 19US; assay: MIC against proteus vulgaris OX 19US; format: cell-based; conditions: OX19US
Source text: as §1
2. proteus vulgaris OX 19US

[12] = system: Proteus vulgaris OXK US; assay: MIC against Proteus vulgaris OXK US; format: cell-based
Source text: as §1
1: Proteus vulgaris OXK US

[13] = system: escherichia coli Kauffman 0-1; assay: MIC against escherichia coli Kauffman 0-1; format: cell-based
Source text: as §1
7: escherichia coli Kauffman 0-1

[14] = system: Staphylococcus Onuma; assay: MIC against Staphylococcus Onuma; format: cell-based
Source text: as §1

[15] = system: staphylococcus Shimanishi; assay: MIC against staphylococcus Shimanishi; format: cell-based
Source text: as §1
17. staphylococcus Shimanishi

[16] = system: Pseudomonas ovalis IAM 1002; assay: MIC against Pseudomonas ovalis IAM 1002; format: cell-based; conditions: Pseudomonas putida, IAM1002; Pseudomonas ovalis IAM 1002; read-out: MIC
Source text: as §1
6: Pseudomonas ovalis IAM 1002

[17] = system: pseudomonas aeruginosa 99 (Gentamycin resistant); assay: MIC against pseudomonas aeruginosa 99 (Gentamycin resistant); format: cell-based
Source text: as §1
5: pseudomonas aeruginosa 99 (Gentamycin resistant)

[18] = system: proteus mirabilis IFM OM-19; assay: MIC against proteus mirabilis IFM OM-19; format: cell-based; conditions: IFMOM19
Source text: as §1
3. proteus mirabilis IFM OM-19

[19] = water solubility, naked-eye observation of solutions; format: physicochemical
Source text: Then, the experimental results showing the excellent water solubility of the compounds of this invention are illustrated in the following table, the results being the observation results by the naked eyes of the solutions thereof in each concentration as shown in the table.

[20] = pseudomonas aeruginosa ATCC 8689, read-out: MIC
[21] = Bacillus subtilis ATCC 6633, read-out: MIC
[22] = bacillus megatherium 10778, read-out: MIC
[23] = micrococcus flavus ATCC 10240, read-out: MIC
[24] = proteus vulgaris OX 19US, read-out: MIC
[25] = Proteus vulgaris OXK US, read-out: MIC
[26] = staphylococcus Shimanishi, read-out: MIC
[27] = pseudomonas aeruginosa 99 (Gentamycin resistant), read-out: MIC

SMILES | MIC [1] | MIC [2] | MIC ([3]; Pseudomonas aeruginosa) | MIC ([4]; Klebsiella pneumoniae) | MIC [5] | MIC ([6]; ENTERITIDIS) | MIC [7] | MIC ([8]; Bacillus subtilis) | MIC ([11]; Proteus vulgaris) | MIC ([12]; Proteus vulgaris) | MIC ([13]; Escherichia coli) | MIC ([14]; Staphylococcus) | MIC [16] | MIC ([5]; read-out: MIC) | MIC [8, 21] | MIC [9, 22] | MIC [10, 23] | MIC [11, 24] | MIC [18] | MIC [15, 26] | also measured
CC1=C(C(=O)O)N2C(=O)[C@@H](NC(=O)[C@H](N)c3ccccc3)[C@H]2SC1 [Cephalexin, reference compound] | 6.25 µg/mL (≈ 18 µM) | 6.25 µg/mL (≈ 18 µM) | > 100 µg/mL | 3 µg/mL (≈ 8.64 µM) | 1.56 µg/mL (≈ 4.49 µM) | 6.25 µg/mL (≈ 18 µM) | 6.25 µg/mL (≈ 18 µM) | 0.78 µg/mL (≈ 2.25 µM) | 30 µg/mL (≈ 86.4 µM) | 30 µg/mL (≈ 86.4 µM) | 10 µg/mL (≈ 28.8 µM) | 12.5 µg/mL (≈ 36 µM) |  |  |  |  |  |  |  |  | MIC ([9]; Bacillus, 10778): 0.78 µg/mL (≈ 2.25 µM); MIC ([10]; Micrococcus flavus): 1.56 µg/mL (≈ 4.49 µM); MIC ([15]; Staphylococcus): 6.25 µg/mL (≈ 18 µM)
CC(=O)OCC1=C(C(=O)O)N2C(=O)[C@@H](NC(=O)[C@H](N)c3ccccc3)[C@H]2SC1 [Cephaloglycin, reference compound] | 10 µg/mL (≈ 24.7 µM) | 3 µg/mL (≈ 7.4 µM) |  |  |  |  | 3 µg/mL (≈ 7.4 µM) |  |  |  |  |  | > 100 µg/mL | 1 µg/mL (≈ 2.47 µM) | 0.3 µg/mL (≈ 0.74 µM) | 1 µg/mL (≈ 2.47 µM) | 0.3 µg/mL (≈ 0.74 µM) | 100 µg/mL (≈ 247 µM) | 100 µg/mL (≈ 247 µM) | 3 µg/mL (≈ 7.4 µM) | MIC ([17]; Pseudomonas aeruginosa): > 100 µg/mL; MIC [3, 20]: > 100 µg/mL; MIC ([4]; Klebsiella pneumoniae ATCC 10031, read-out: MIC): 25 µg/mL (≈ 61.7 µM); MIC ([6]; salmonella enteritidis, read-out: MIC): 3 µg/mL (≈ 7.4 µM); MIC [12, 25]: 25 µg/mL (≈ 61.7 µM); MIC ([13]; escherichia coli Kauffman 0-1, read-out: MIC): 100 µg/mL (≈ 247 µM); MIC ([14]; Staphylococcus Onuma, read-out: MIC): 3 µg/mL (≈ 7.4 µM)
CC(=O)OCC1=C(C(=O)O)N2C(=O)[C@@H](NC(=O)Cc3cccs3)[C@H]2SC1 [Cephalothin, reference compound] | 6.25 µg/mL (≈ 15.8 µM) | 1.56 µg/mL (≈ 3.93 µM) | > 100 µg/mL | 0.78 µg/mL (≈ 1.97 µM) | 0.19 µg/mL (≈ 0.479 µM) | 0.39 µg/mL (≈ 0.984 µM) | 6.25 µg/mL (≈ 15.8 µM) | < 0.09 µg/mL | 12.5 µg/mL (≈ 31.5 µM) |  | 3.13 µg/mL (≈ 7.9 µM) | 0.39 µg/mL (≈ 0.984 µM) |  |  |  |  |  |  |  |  | MIC ([17]; Pseudomonas aeruginosa): > 100 µg/mL; MIC ([15]; Staphylococcus): 0.39 µg/mL (≈ 0.984 µM)
Cc1nnc(SCC2=C(C(=O)O)N3C(=O)[C@@H](NC(=O)Cn4cnnn4)[C@H]3SC2)s1 [Cephazolin, reference compound] | 1.56 µg/mL (≈ 3.43 µM) | 1.56 µg/mL (≈ 3.43 µM) |  | 1.56 µg/mL (≈ 3.43 µM) |  | 1.56 µg/mL (≈ 3.43 µM) | 1.56 µg/mL (≈ 3.43 µM) |  |  | 3.13 µg/mL (≈ 6.89 µM) | 1.56 µg/mL (≈ 3.43 µM) | 1.56 µg/mL (≈ 3.43 µM) | > 100 µg/mL | 0.19 µg/mL (≈ 0.418 µM) | 0.19 µg/mL (≈ 0.418 µM) | 0.19 µg/mL (≈ 0.418 µM) | 0.19 µg/mL (≈ 0.418 µM) | 25 µg/mL (≈ 55 µM) | 6.25 µg/mL (≈ 13.8 µM) | 0.78 µg/mL (≈ 1.72 µM) | MIC [17, 27]: > 100 µg/mL; MIC [3, 20]: > 100 µg/mL
Nc1cc(Cl)cc(SCC2=C(C(=O)O)N3C(=O)C(NC(=O)C(NC(=O)c4cccnc4)c4ccccc4)C3SC2)n1 (stereo not drawn) [Contrast, 7-(α-nicotinoylamido-α-phenylacetamido)-3-(2-amino-4-chloropyidin-6-ylthiomethyl)-Δ ^3-cephem-carboxylic acid, reference compound] |  |  |  |  |  |  |  |  |  |  |  |  |  |  |  |  |  |  |  |  | water solubility (appearance of solution by the naked eyes) ([19]; concentration 1%): clear; water solubility (appearance of solution by the naked eyes) ([19]; concentration 5%): slightly turbid; water solubility (appearance of solution by the naked eyes) ([19]; concentration 10%): turbid; water solubility (appearance of solution by the naked eyes) ([19]; concentration 20%): gelled
O=C(O)C1=C(CSc2ccc(S)nn2)CS[C@@H]2[C@H](NC(=O)[C@H](NC(=O)c3cnccc3O)c3ccccc3)C(=O)N12 [Example 1, 7-[D-α-(4-hydroxynicotinoylamido)-α-phenylacetamido]-3-(3-mercaptopyridazin-6-yl)thiomethyl-Δ^3-cephem-4-carboxylic acid] | 12.5 µg/mL (≈ 20.5 µM) | 0.39 µg/mL (≈ 0.639 µM) | 100 µg/mL (≈ 164 µM) | 6.25 µg/mL (≈ 10.2 µM) |  | 0.39 µg/mL (≈ 0.639 µM) | 6.25 µg/mL (≈ 10.2 µM) |  |  |  | 6.25 µg/mL (≈ 10.2 µM) | 6.25 µg/mL (≈ 10.2 µM) | 25 µg/mL (≈ 40.9 µM) | 0.39 µg/mL (≈ 0.639 µM) | 0.39 µg/mL (≈ 0.639 µM) | 0.39 µg/mL (≈ 0.639 µM) | 3.13 µg/mL (≈ 5.13 µM) | 0.78 µg/mL (≈ 1.28 µM) | 0.39 µg/mL (≈ 0.639 µM) | 1.56 µg/mL (≈ 2.55 µM) | MIC [17, 27]: 50 µg/mL (≈ 81.9 µM); MIC [12, 25]: 0.19 µg/mL (≈ 0.311 µM)
